Drawing on patent US10246456B2, “IRAK4 inhibiting agents” (BIOGEN MA INC., priority 2014, dated 2019), this text covers IC50 for 38 compounds.

The structures appear in SMILES notation.

For this assay, the target named is IRAK4 (Homo sapiens (Human), UniProt Q9NWZ3). As to the kind of experiment: IRAK-4 AlphaScreen biochemical kinase assay. The conditions noted are these: 1 nM IRAK4, 1 mM ATP, 3.5 h at RT. Put shortly:
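AlphaScreen read-out: streptavidin beads bind the biotinylated peptide and protein A beads bind the anti-phosphothreonine antibody, so energy transfer reports phosphorylation of the peptide. The kinase is human IRAK-4.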

IRAK4, sequence (Q9NWZ3 whole entry, species assumed): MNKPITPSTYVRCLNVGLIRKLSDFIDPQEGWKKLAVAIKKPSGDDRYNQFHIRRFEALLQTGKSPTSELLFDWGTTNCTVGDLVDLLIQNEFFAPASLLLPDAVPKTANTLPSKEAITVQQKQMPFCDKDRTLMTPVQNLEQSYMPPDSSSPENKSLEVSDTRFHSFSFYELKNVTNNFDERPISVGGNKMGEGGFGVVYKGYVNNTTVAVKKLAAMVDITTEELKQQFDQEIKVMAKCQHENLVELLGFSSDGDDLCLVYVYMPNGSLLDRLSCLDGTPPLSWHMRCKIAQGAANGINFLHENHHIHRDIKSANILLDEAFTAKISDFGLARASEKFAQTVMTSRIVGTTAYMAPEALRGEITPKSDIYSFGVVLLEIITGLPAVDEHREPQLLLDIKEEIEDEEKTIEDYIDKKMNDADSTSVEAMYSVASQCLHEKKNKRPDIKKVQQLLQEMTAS

Compound `CC(N)c1cccc(-c2ccc3cnn(-c4cccc(C5(C#N)CC5)n4)c3c2)n1` (centres unmarked) [Example 290, 1-(6-(6-(6-(1-aminoethyl)pyridin-2-yl)-1H-indazole-1-yl)pyridin-2-yl)cyclopropanecarbonitrile] yielded an IC50 below 100 nM. `NCc1cccc(-c2ccc3cnn(-c4cccc(CO)n4)c3c2)n1` [Example 291, (6-(6-(6-(aminomethyl)pyridin-2-yl)-1H-indazol-1-yl)pyridin-2-yl)methanol] yielded a 50% inhibitory concentration (IC50) below 100 nM. For the compound `CC(N)c1cccc(-c2ccc3cnn(-c4cccc(C(C)(C)N)n4)c3c2)n1` (centres unmarked) [Example 292, 2-(6-(6-(6-(1-aminoethyl)pyridin-2-yl)-1H-indazol-1-yl)pyridin-2-yl)propan-2-amine], the IC50 fell in the range of 1000 to 10000 nM.

`CCc1cccc(-c2ncc3ccc(-c4cccc(C(C)N)n4)cn23)n1` (centres unmarked) [Example 293, 1-(6-(3-(6-ethylpyridin-2-yl)imidazo[1,5-a]pyridin-6-yl)pyridin-2-yl)ethanamine]: the IC50 was below 100 nM. `CCC(N)c1cccc(-c2ccc3cnn(-c4cccc(CO)n4)c3c2)n1` (centres unmarked) [Example 294, (6-(6-(6-(1-aminopropyl)pyridin-2-yl)-1H-indazol-1-yl)pyridin-2-yl)methanol] gave an IC50 below 100 nM. In turn, `Cc1cccc(-n2ncc3c(-c4ncc[nH]4)cc(-c4cccc(C(C)N)n4)cc32)n1` (centres unmarked) [Example 295, 1-(6-(4-(1H-imidazol-2-yl)-1-(6-methylpyridin-2-yl)-1H-indazol-6-yl)pyridin-2-yl)ethanamine] yielded an IC50 below 100 nM.

The compound `Cc1ccnc(-n2ncc3ccc(-c4cccc(C(C)N)n4)cc32)n1` (centres unmarked) [Example 296, 1-(6-(1-(4-methylpyrimidin-2-yl)-1H-indazol-6-yl)pyridin-2-yl)ethanamine] gave an IC50 of 1000 to 10000 nM.

In turn, `CC(N)c1cccc(-c2ccc3cnn(-c4nccc(C(F)(F)F)n4)c3c2)n1` (centres unmarked) [Example 297, 1-(6-(1-(4-(trifluoromethyl)pyrimidin-2-yl)-1H-indazol-6-yl)pyridin-2-yl)ethanamine] gave a half-maximal inhibitory concentration (IC50) below 100 nM. The result for `Cc1cccc(-n2ncc3ccc(-c4cccc(C(C)(C)N)n4)cc32)n1` [Example 298, 2-(6-(1-(6-methylpyridin-2-yl)-1H-indazol-6-yl)pyridin-2-yl)propan-2-amine] reads 100 to 1000 nM; that for `Cc1cccc(-n2ncc3ccc(-c4cn(C)c(C(C)O)n4)cc32)n1` (centres unmarked) [Example 299, 1-(1-methyl-4-(1-(6-methylpyridin-2-yl)-1H-indazol-6-yl)-1H-imidazol-2-yl)ethanol], 1000 to 10000 nM. Regarding `Cc1cccc(-n2ncc3ccc(-c4cn(C)c(CN)n4)cc32)n1` [Example 300, (1-methyl-4-(1-(6-methylpyridin-2-yl)-1H-indazol-6-yl)-1H-imidazol-2-yl)methanamine], the half-inhibitory concentration (IC50) lay in the range of 1000 to 10000 nM. In the case of `CC(N)c1cccc(-c2ccc3cnn(-c4cccc(C(C)(C)C(N)=O)n4)c3c2)n1` (centres unmarked) [Example 301, 2-(6-(6-(6-(1-aminoethyl)pyridin-2-yl)-1H-indazol-1-yl)pyridin-2-yl)-2-methylpropanamide], the IC50 lay within 100 to 1000 nM.

For the compound `CC(N)c1cccc(-c2ccc3cnc(-c4cccc(CO)n4)n3c2)n1` (centres unmarked) [Example 302, (6-(6-(6-(1-aminoethyl)pyridin-2-yl)imidazo[1,5-a]pyridin-3-yl)pyridin-2-yl)methanol], the IC50 is below 100 nM. For `Cc1cccc(-n2ncc3c(-c4nccs4)cc(-c4cccc(C(C)N)n4)cc32)n1` (centres unmarked) [Example 303, 1-(6-(1-(6-methylpyridin-2-yl)-4-(thiazol-2-yl)-1H-indazol-6-yl)pyridin-2-yl)ethanamine], the IC50 is below 100 nM.

`Cc1cccc(-n2ncc3ccc(-c4cccc(C5(C#N)CCC5)n4)cc32)n1` [Example 304, 1-(6-(1-(6-methylpyridin-2-yl)-1H-indazol-6-yl)pyridin-2-yl)cyclobutanecarbonitrile] gave an IC50 below 100 nM. `Cc1cccc(-n2ncc3ccc(-c4cn(C)c(C(C)N)n4)cc32)n1` (centres unmarked) [Example 305, 1-(1-methyl-4-(1-(6-methylpyridin-2-yl)-1H-indazol-6-yl)-1H-imidazol-2-yl)ethanamine] yielded a 50% inhibitory concentration (IC50) of 100 to 1000 nM. The result for `Cc1cccc(-n2ncc3ccc(-c4ccccn4)cc32)n1` [Example 306, 1-(6-methylpyridin-2-yl)-6-(pyridin-2-yl)-1H-indazole] reads 100 to 1000 nM; that for `COc1cc(-c2cccc(C(C)N)n2)cc2c1cnn2-c1cccc(CO)n1` (centres unmarked) [Example 307, (6-(6-(6-(1-aminoethyl)pyridin-2-yl)-4-methoxy-1H-indazol-1-yl)pyridin-2-yl)methanol], below 100 nM; that for `Cc1cccc(-n2ncc3ccc(-c4ccc5c(n4)C(N)CCCC5)cc32)n1` (centres unmarked) [Example 308, 2-(1-(6-methylpyridin-2-yl)-1H-indazol-6-yl)-6,7,8,9-tetrahydro-5H-cyclohepta[b]pyridin-9-amine], 100 to 1000 nM.

`CC(N)c1cccc(-c2cc(CO)c3cnn(-c4cccc(CO)n4)c3c2)n1` (centres unmarked) [Example 309, (6-(6-(1-aminoethyl)pyridin-2-yl)-1-(6-(hydroxymethyl)pyridin-2-yl)-1H-indazol-4-yl)methanol]: the IC50 is below 100 nM.

As to `Cc1cccc(-n2ncc3ccc(-c4csc(C(C)N)n4)cc32)n1` (centres unmarked) [Example 310, 1-(4-(1-(6-methylpyridin-2-yl)-1H-indazol-6-yl)thiazol-2-yl)ethanamine], the IC50 is below 100 nM. The result for `CC(N)c1cccc(-c2cc(Cl)c3cnc(-c4cccc(C(F)(F)F)n4)n3c2)n1` (centres unmarked) [Example 311, 1-(6-(8-chloro-3-(6-(trifluoromethyl)pyridin-2-yl)imidazo[1,5-a]pyridin-6-yl)pyridin-2-yl)ethanamine] reads below 100 nM; that for `Cc1cccc(-n2ncc3ccc(-c4cccc(C5(C(N)=O)CCC5)n4)cc32)n1` [Example 312, 1-(6-(1-(6-methylpyridin-2-yl)-1H-indazol-6-yl)pyridin-2-yl)cyclobutanecarboxamide], below 100 nM. The result for `Cc1cccc(-n2ncc3ccc(-c4cccc(CCC(F)(F)F)n4)cc32)n1` [Example 313, 1-(6-methylpyridin-2-yl)-6-(6-(3,3,3-trifluoropropyl)pyridin-2-yl)-1H-indazole] reads 1000 to 10000 nM; that for `CC(N)c1cccc(-c2ccc3cnn(-c4cccc(CCO)n4)c3c2)n1` (centres unmarked) [Example 314, 2-(6-(6-(6-(1-aminoethyl)pyridin-2-yl)-1H-indazol-1-yl)pyridin-2-yl)ethanol], below 100 nM; that for `Cc1cc(C)nc(-n2ncc3ccc(-c4cccc(C(C)N)n4)cc32)c1` (centres unmarked) [Example 315, 1-(6-(1-(4,6-dimethylpyridin-2-yl)-1H-indazol-6-yl)pyridin-2-yl)ethanamine], 1000 to 10000 nM. In turn, `CNC(=O)c1cc(-c2cccc(C(C)N)n2)cc2c1cnn2-c1cccc(CO)n1` (centres unmarked) [Example 316, 6-(6-(1-aminoethyl)pyridin-2-yl)-1-(6-(hydroxymethyl)pyridin-2-yl)-N-methyl-1H-indazole-4-carboxamide] gave an IC50 below 100 nM. `CC(N)c1cccc(-c2cc(F)c3cnc(-c4cccc(C(F)(F)F)n4)n3c2)n1` (centres unmarked) [Example 317, 1-(6-(8-fluoro-3-(6-(trifluoromethyl)pyridin-2-yl)imidazo[1,5-a]pyridin-6-yl)pyridin-2-yl)ethanamine] registered a half-inhibitory concentration (IC50) below 100 nM. The result for `CC[C@H](N)c1cccc(-c2ccc3cnn(-c4cccc(CO)n4)c3c2)n1` [Example 318, (S)-(6-(6-(6-(1-aminopropyl)pyridin-2-yl)-1H-indazol-1-yl)pyridin-2-yl)methanol] reads below 100 nM; that for `Cc1cccc(-n2ncc3c(-c4cc[nH]n4)cc(-c4cccc(C(C)N)n4)cc32)n1` (centres unmarked) [Example 319, 1-(6-(1-(6-methylpyridin-2-yl)-4-(1H-pyrazol-3-yl)-1H-indazol-6-yl)pyridin-2-yl)ethanamine], below 100 nM; that for `Cc1cccc(-n2ncc3ccc(-c4csc(CO)n4)cc32)n1` [Example 320, (4-(1-(6-methylpyridin-2-yl)-1H-indazol-6-yl)thiazol-2-yl)methanol], 100 to 1000 nM. The result for `CC(N)c1cccc(-c2cc(F)c3cnn(-c4cccc(CO)n4)c3c2)n1` (centres unmarked) [Example 321, (6-(6-(6-(1-aminoethyl)pyridin-2-yl)-4-fluoro-1H-indazol-1-yl)pyridin-2-yl)methanol] reads below 100 nM; that for `CC[C@@H](N)c1cccc(-c2ccc3cnn(-c4cccc(CO)n4)c3c2)n1` [Example 322, (R)-(6-(6-(6-(1-aminopropyl)pyridin-2-yl)-1H-indazol-1-yl)pyridin-2-yl)methanol], below 100 nM; that for `Cc1cccc(-n2ncc3ccc(-c4cn(C)cn4)cc32)n1` [Example 323, 6-(1-methyl-1H-imidazol-4-yl)-1-(6-methylpyridin-2-yl)-1H-indazole], 100 to 1000 nM.

Turning to `CCC[C@H](N)c1cccc(-c2cc(N3CCOCC3=O)c3cnn(-c4cccc(CO)n4)c3c2)n1` [Example 351, (S)-4-(6-(6-(1-aminobutyl)pyridin-2-yl)-1-(6-(hydroxymethyl)pyridin-2-yl)-1H-indazol-4-yl)morpholin-3-one], the IC50 was 100 to 1000 nM. As to `C[C@H](N)c1cccc(-c2cc(-n3cccn3)c3cnn(-c4cccc(CO)n4)c3c2)n1` [Example 352, (S)-(6-(6-(6-(1-aminoethyl)pyridin-2-yl)-4-(1H-pyrazol-1-yl)-1H-indazol-1-yl)pyridin-2-yl)methanol], the IC50 was below 100 nM.

Consider `Cc1ccn(-c2cc(-c3cccc([C@H](C)N)n3)cc3c2cnn3-c2cccc(CO)n2)n1` [Example 353, (S)-(6-(6-(6-(1-aminoethyl)pyridin-2-yl)-4-(3-methyl-1H-pyrazol-1-yl)-1H-indazol-1-yl)pyridin-2-yl)methanol], for which the 50% inhibitory concentration (IC50) is below 100 nM. The result for `C[C@H](N)c1cccc(-c2cc(-c3csc(C(F)(F)F)n3)c3cnn(-c4cccc(CO)n4)c3c2)n1` [Example 382, (S)-(6-(6-(6-(1-aminoethyl)pyridin-2-yl)-4-(2-(trifluoromethyl)thiazol-4-yl)-1H-indazol-1-yl)pyridin-2-yl)methanol] reads below 100 nM.

For orientation: IC50 means the concentration needed to halve the response being measured. Higher therefore signals weaker potency.
